According to patent US20070264243A1, “REVERSIBLY IMMORTALIZED HEPATOCYTES AND METHODS OF USE” (priority 1999, published 2007):
“Also recorded” adds a separate entry of the source.

Columns and labels:
NKNT-3 cells = assay: MTT cytotoxicity assay; type: cell-based, human
Protocol: MTT Cytotoxicity Assays. Sensitivity of NKNT-3 cells to either 5 μM ganciclovir or G418 (500 μg/ml) was confirmed by 3-(4,5-dimethyl-2-thiazolyl)-2,5-diphenyl 2H-tetrazolium bromide (MTT) cytotoxicity assays. NKNT-3 cells were plated in a 96-well microplate at 5×10^3 cells per well to obtain a growth curve. On days 1, 3, 5, and 7, MTT (20 μg/ml) was added to a different well, incubated for 4 h, and then reacted with 150 μl of isopropanol for 10 min. Relative percentage of viability was determined by the ratio of absorbance at 570 and 630 nm with Bio-Rad EIA reader (Bio-Rad, Richmond, Calif.).

C8-B/Ras cells = assay: Soft agar assay, sensitivity of colonies to gancyclovir; type: cell-based, rat
Protocol: Soft agar assay. To assay the capacity for anchorage independent growth, 5×10^4 cells were suspended in 2 ml of 0.3% Difco agar in IM and gently overlaid onto 60 mm dishes containing a lower layer of 0.5% agar. Cultures were fed every 5 to 7 days with a small amount of media. After 20 days of growth at 37° C., the dishes were stained with 0.5 mg/ml p-iodonitrotetrazolium violet (Sigma Chemical Co., St. Louis, Mo.), and macroscopically visible colonies (>100 μm in diameter) were scored. HepG2 cells were used as a positive control.

tumors in SCID mice = assay: Tumor sensitivity to gancyclovir in tumor-bearing SCID mice; type: in vivo, mouse
Protocol: SCID mouse studies. The tumorigenicity of cell lines was assayed by subcutaneous injection of cells into the flanks of immunodeficient (SCID) mice. Cells were dislodged from monolayer culture with trypsin, washed, and suspended in PBS. SCID mice were inoculated subcutaneously with 1×10^6 cells per site. Animals were monitored every third day for the development of growth at the sites of injection. Animals were sacrificed at 24 weeks or when tumors reached 1 to 2 cm in diameter. Tumors were processed for routine histology and immunohistochemistry. To determine tumor sensitivity to treatment with gancyclovir, some animals were given a 0.2 ml intraperitoneal injection of gancyclovir (50 mg/kg) daily for 14 days when tumors reached 1-1.2 cm in size.

Compound: CN[C@@H]1[C@@H](O)[C@@H](O[C@@H]2[C@@H](O)[C@H](O[C@H]3O[C@H]([C@@H](C)O)[C@@H](O)[C@H](O)[C@H]3N)[C@@H](N)C[C@H]2N)OC[C@]1(C)O [G418]
- sensitivity of NKNT-3 cells to G418 (NKNT-3 cells; G418 500 μg/ml): confirmed

Compound: Nc1nc(O)c2ncn(COC(CO)CO)c2n1 [gancyclovir]
- rare three-dimensional colonies after Ad-Cre infection, sensitivity to gancyclovir (C8-B/Ras cells; C8-B/Ras cells after Ad-Cre infection): all were sensitive
- C8-B/Ras soft agar colonies, sensitivity to gancyclovir (C8-B/Ras cells; media containing 5 μM gancyclovir): could be eliminated
- tumor recurrence (tumors in SCID mice; 4-week post-gancyclovir observation period): no tumor recurrence
- tumor response by the end of gancyclovir treatment (tumors in SCID mice; gancyclovir 50 mg/kg, 14-day course): could no longer be identified clinically or histologically; also recorded: complete regression of established tumors
- time until tumors stopped growing (tumors in SCID mice; gancyclovir 50 mg/kg, 14-day course, tumors >1 cm): ≤ 5 days
- sensitivity of NKNT-3 cells to ganciclovir (NKNT-3 cells; 5 μM ganciclovir): confirmed
